# Key:
# [1] = system: Sitophilus primary endosymbiont (SPE, Candidatus Sodalis pierantonius); experiment: SPE levels in weevils by qPCR; assay type: in vivo, Sitophilus zeamais; settings: for SPE amount, fold higher in water-treated than in treated weevils: F0 adults, 18 days
# Protocol: (§1) Sitophilus maize weevils (Sitophilus zeamais) were reared on organic corn at 27.5° C. and 70% relative humidity. Prior to being used for weevil rearing, corn was frozen for 7 days and then tempered to 10% humidity with sterile water. […] Ciprofloxacin (Sigma) stock solutions were made at 25 mg/ml in 0.1 N HCl, sterilized by passing through a 0.22 μm syringe filter, and stored at −20° C. For treatments, the appropriate amount of stock solution was diluted in sterile water.
# (§2) Weevil survival was monitored daily for 18 days, after which DNA was extracted from the remaining weevils in each group. Briefly, the weevil body was surface sterilized by dipping the weevil into a 6% bleach solution for approximately 5 seconds. Weevils were then rinsed in sterile water and DNA was extracted from each individual […] using a DNA extraction kit (Qiagen, DNeasy kit) according to manufacturer's instructions. […]; SEQ ID NO: 245). […]; SEQ ID NO: 247) (Login et al., 2011). qPCR was performed using a qPCR amplification ramp of 1.6 degrees C./s and the following conditions: 1) 95° C. for 10 minutes, 2) 95° C. for 15 seconds, 3) 57° C. for 30 seconds, 4) repeat steps 2-3 40×, 5) 95° C. for 15 seconds, 6) 55° C. for 1 minute, 7) ramp change to 0.15 degrees C./s, 8) 95° C. for 1 second. qPCR data was analyzed using analytic (Thermo Fisher Scientific, QuantStudio Design and Analysis) software.
# [2] = system: Sitophilus zeamais weevils; experiment: Weevil reproduction (emergence of F1 offspring); settings: 2.5 mg/ml ciprofloxacin; till day 43
# [3] = system: E. coli DH5a; experiment: Antibiotic coating and penetration of corn kernels (E. coli growth on LB plates); assay type: cell-based, Escherichia coli; settings: kernels soaked 1.5 hours in 2.5 or 0.25 mg/ml ciprofloxacin
# [4] = system: Sitophilus zeamais weevils; experiment: Weevil survival; assay type: in vivo; settings: adult mating pairs; 250 μg/ml or 2.5 mg/ml ciprofloxacin; 18 days
# Protocol: as §1, §2
# [5] = system: Buchnera; experiment: Buchnera/aphid DNA copy number by qPCR; assay type: in vivo, Acyrthosiphon pisum
# [6] = system: Acyrthosiphon pisum aphids; experiment: Aphid survival monitored daily; assay type: in vivo
# [7] = system: Asaia; experiment: Asaia quantification by qPCR in mosquito midguts; assay type: in vivo, Anopheles coluzzii; settings: blood meals with 0.1, 1 or 5 μg/ml azithromycin, three meals; vs control
# [8] = system: Anopheles coluzzii mosquitoes; experiment: Mosquito survival after azithromycin blood meals; assay type: in vivo; settings: blood meals with 0.1, 1 or 5 μg/ml azithromycin; vs negative control
# [9] = system: Acyrthosiphon pisum aphids; experiment: Aphid fecundity (offspring counts); assay type: in vivo; settings: eNASCO, control approximately 7
# Protocol: In addition, the developmental stage (1st, 2nd, 3rd, 4th, 5th instar) was determined daily throughout the experiment. Once an aphid reached the 4th instar stage, they were given their own artificial feeding system in a deep petri dish so that fecundity could be monitored once they reached adulthood.
# For adult aphids, new nymphs were counted daily and then discarded. At the end of the experiments, fecundity was determined as the mean number of offspring produced daily once the aphid reached adulthood. Pictures of aphids were taken throughout the experiment to evaluate size differences between treatment groups.
# In addition, the developmental stage (1st, 2nd, 3rd, 4th, 5th, and 5R (5th that has reproduced) instar) was determined daily throughout the experiment. Once an aphid reached the 4th instar stage, they were given their own artificial feeding system in a deep petri dish so that fecundity could be monitored once they reached adulthood.
# For adult aphids, new nymphs were counted daily and then discarded. At the end of the experiments, fecundity was measured in two ways: 1) the mean day at which the first offspring for the treatment group was determined and 2) the mean number of offspring produced daily once the aphid reached adulthood. […]
# In addition, the developmental stage (1st, 2nd, 3rd, 4th, 5th instar) was determined daily throughout the experiment. […]
# [10] = LSR-1, through plants, artificial diet without essential amino acids + 100 μg/ml rifampicin
compound,measurement,setting,value
O=C(O)c1cn(C2CC2)c2cc(N3CCNCC3)c(F)cc2c1=O [ciprofloxacin],"SPE amount, fold higher in water-treated than in treated weevils",[1]; 250 ug/ml ciprofloxacin,approximately 4 fold
same,"SPE amount, fold higher in water-treated than in treated weevils",[1]; 2.5 mg/ml ciprofloxacin,~8 fold
same,"SPE levels, fold higher in water-treated than in treated F1 weevils","[1]; F1 weevils dissected from kernels, 2.5 mg/ml ciprofloxacin",approximately 4 fold
same,F1 offspring emerged,[2],much less offspring
same,bacterial growth on plate with entire soaked corn kernel,[3],no bacteria grew
same,weevil survival,[4],all weevils remained alive
"Cc1cc2c(C(C)C)c(O)c(O)c(C=O)c2c(O)c1-c1c(C)cc2c(C(C)C)c(O)c(O)c(C=O)c2c1O [gossypol, gossypol acetic acid]","Buchnera/aphid DNA copies, fold less than control","[5]; through plants, 0.25 and 0.5% gossypol, 5 or 13 days",~4 fold
same,time after which aphids began dying,"[6]; through plants, 0.5% gossypol",2 days
CC[C@H]1OC(=O)[C@H](C)[C@@H](O[C@H]2C[C@@](C)(OC)[C@@H](O)[C@H](C)O2)[C@H](C)[C@@H](O[C@@H]2O[C@H](C)C[C@H](N(C)C)[C@H]2O)[C@](C)(O)C[C@@H](C)CN(C)[C@H](C)[C@@H](O)[C@]1(C)O [azithromycin],"Asaia specific genes (16S rDNA relative to S7, qPCR)",[7],reduction of Asaia specific genes
same,survival rate of mosquitoes,[8],decreased compared to the control
CC(C)(CO)[C@@H](O)C(=O)NCCCO [pantothenol],mean number of offspring per day,[9]; 10 uM pantothenol,approximately 4 offspring/day
same,mean number of offspring per day,[9]; 100 uM pantothenol,~5 offspring/day
same,Buchnera/aphid DNA copy number,"[5]; eNASCO, 10 or 100 uM pantothenol, 8 days",does not affect Buchnera/aphid DNA copy number directly
same,survival rate of aphids,"[6]; eNASCO, leaf coating, 10 uM pantothenol, p=0.0019",lower survival rates than aphids placed on coated leaves with the control solution
same,survival rate of aphids,"[6]; eNASCO, through plants, 10 or 100 uM pantothenol",negatively affected aphid fitness
CO[C@H]1/C=C/O[C@@]2(C)Oc3c(C)c(O)c4c(O)c(c(/C=N/N5CCN(C)CC5)c(O)c4c3C2=O)NC(=O)/C(C)=C\C=C\[C@H](C)[C@H](O)[C@@H](C)[C@@H](O)[C@@H](C)[C@H](OC(C)=O)[C@@H]1C [rifampicin],"Buchnera/aphid DNA copies, fold less than control","[5]; LSR-1, through plants, 100 μg/ml rifampicin, 7 days",~4 fold
same,time after which aphids began dying,[6]; [10],1 days
same,time by which all aphids succumbed to treatment,[6]; [10],≤ 9 days
O=C/C=C/c1ccccc1 [trans-cinnemaldehyde],"Buchnera/aphid DNA copies, fold less than control","[5]; LSR-1, 0.5 and 5% trans-cinnemaldehyde, 3 days",~870 fold
same,survival rates of aphids,"[6]; LSR-1, 0.05%, 0.5%, and 5% trans-cinnemaldehyde, vs water",significantly lower
CC(=O)CCC(=O)O [levulinic acid],"Buchnera/aphid DNA copies, fold less than control","[5]; eNASCO, 0.03 or 0.3% levulinic acid in water, 7 days",~6 fold
same,survival of aphids,"[6]; eNASCO, 0.3% levulinic acid, 11-day experiment",survival was significantly less
